This note sets out measurements from publication PMC12165799, “Antimicrobial peptide developed with machine learning sequence optimization targets drug resistant Staphylococcus aureus in mice” (The Journal of Clinical Investigation, 2025).

≈ marks a conversion by molar mass, not a printed value.

Data set [1] can be described thus: HPLC retention time on C18 reverse-phase column. The data set is classed as physicochemical. The source says: Table 1 Physical parameters and minimal inhibitory concentrations of citropin 1.1-derived peptides against S. aureus MW2 | column: rT^D (min)
Data set [2] has as its system S. aureus MW2 (MRSA) exponential and persister cells. In words: S. aureus persister cell and time-kill assays (MW2). The class given is cell-based, Staphylococcus aureus. Conditions: approximately 1 × 10^8 CFU, 10 × MIC. The protocol: (§1) 305 Minimal inhibitory concentration (MIC) assay
(§2) We made serial dilutions of 10×
(§3) We determined the MIC using OD600
(§4) Accordingly, we added 150 mM NaCl,
(§5) 319 established protocol (5).
(§6) 323 aureus VRS1) in PBS. To assess the killing kinetics of CIT-8 in persister cells, we added 1 ml of
(§7) 324 cell suspension to the wells of a 2-ml deep-well assay block (Cat no. 3960, Corning, NY, USA)
(§8) We also included ciprofloxacin (at 10 μg/ml) for S.
(§9) 326 aureus MW2 and linezolid (100 μg/ml) for S. aureus VRS1 as antibiotic controls. Additionally,
(§10) 327 we included bithionol (at 10 μg/ml) as a positive control, known for its ability to kill stationary
(§11) 328 phase persister cells (6). We incubated the plates at 37°C, with shaking at 225 rpm. At specific
(§12) 329 times (0, 15, 30, 60, and 120 min), we collected 10 μl samples, diluted them serially, and then
(§13) 330 plated them on tryptic soy agar (TSA) (BD Difco, NJ, USA) plates. We incubated the TSA plates
(§14) 331 for 18 hours at 37°C for colony counting. We performed these experiments in duplicate. As a
(§15) 332 comparison, we prepared the exponential cells of S. aureus MW2 and VRS1 in PBS and analyzed
(§16) 333 their killing kinetics in the same manner as described for persister cells.

In data set [3] the test system is S. aureus MW2 established biofilm. The data set can be described thus: Fluorescence microscopy of established biofilms, live/dead staining. The class given is cell-based, Staphylococcus aureus. Conditions: 32 μg/mL, SYTO9 / propidium iodide. As to the method: 369 aureus MW2 (adjusted to 1 × 10^6 CFU/ml) in TSB medium (supplemented with 0.2% glucose)
370 from overnight grown cultures. We added 100 µl of bacterial culture to flat-bottomed 96-well
371 polystyrene microtiter plates (Cat no. 3595, Corning, NY, USA). We then incubated the plates at
372 37°C for 24 hours in static conditions to allow biofilm formation. After incubation, we carefully
373 pipetted out the TSB medium and washed the wells with PBS (Gibco, MD, USA) to remove
374 loosely attached planktonic cells. We treated the established biofilms in each well with 10 µl of
375 serially diluted 10× peptide solution, followed by the addition of 90 μl TSB medium
376 (supplemented with 0.2% glucose). We incubated the plates for another 24 h at 37°C before
377 processing biomass and live-cell contents. We calculated the concentration of peptide that disrupts
378 50% of established biofilms (MBEC50).
380 Fluorescence microscopy of CIT-8-treated S. aureus MW2 established biofilms
381 We prepared exponential phase cultures of S. aureus MW2 and adjusted the bacterial count
382 to 1 × 10^6 CFU/ml in fresh TSB medium. To establish biofilms, we added 200 µl of the bacterial
383 culture to the chambers of Millicell EZ Slides (Millipore Sigma, MA, USA) and maintained them
384 at 37°C for 24 hours under static conditions (8). After incubation, we carefully removed the TSB […]
We calculated the percent hemolysis, […]

Data set [4] concerns S. aureus VRS1 (VRSA) exponential and persister cells. The data set can be described thus: S. aureus persister cell and time-kill assays (VRS1). The data set is classed as cell-based, Staphylococcus aureus. Conditions: 10 × MIC. As to the method:
as §1, §2, §3, §4, §5, §6, §7, §8, §9, §10, §11, §12, §13, §14, §15, §16

The next data set has as its system S. aureus MW2 membrane. The data set can be described thus: Membrane depolarization, DiBAC4(3). Conditions: S. aureus MW2, 32 μg/mL. The class given is cell-based, Staphylococcus aureus.
In data set [5] the test system is S. aureus MW2 infected skin. The data set can be described thus: Histopathology of skin (H&E, Gram stain), prophylactic model. The class given is in vivo, mice. The conditions noted are these: 2% w/w formulation, H&E and Gram stains. The source says: 235 Supplemental Figure 13. Histopathology of vehicle and CIT-8 treated skin in the skin-abraded
236 prophylactic murine model infected with S. aureus MW2.
237 Panel A: Representative 10× images of H&E-stained murine skin sections from all n=32 animals
238 (n=8 per group). Scale bars: 0.05 mm. Panel B: Representative 40× images of Gram-stained murine
239 skin sections. Scale bars: 0.01 mm. White arrows (1-5) indicate key histopathological features; 1:
240 Disorganized epidermal layer with epidermal disruption; 2: Dense infiltration of
241 polymorphonuclear (PMN) and mononuclear (MN) cells in both the epidermis and dermis,
242 indicative of heightened inflammation; 3: More intact epidermis; 4: Reduced numbers of PMN
243 and MN cells; 5: Bacterial patches.
(1 picture or pasted object on this page, not shown here)

The next data set has as its system S. aureus isolates. The data set can be described thus: microbe, parasite or virus in culture. Conditions: Staphylococcus aureus.

Method for S. aureus MW2 membrane: 466 Membrane depolarization
467 We measured bacterial membrane potential using an established protocol with minor
468 modifications (9). We prepared an exponential phase culture of S. aureus MW2 in fresh TSB
469 medium, washed the culture two times in PBS, and resuspended it in a double volume of PBS. To
470 energize the bacterial cells, we added 25 mM of glucose for 15 mins at 37°C, followed by 500 nM
471 of DiBAC4(3) (bis-(1,3-dibutylbarbituric acid) trimethine oxonol) (Thermo Fisher Scientific, ON,
472 Canada). DiBAC4(3) is a potential-sensitive probe that enters depolarized cells, binds to
474 this bacterial culture per well in a black, clear bottomed 96-well plate (Cat. no. 3904, Corning,
475 NY, USA) and monitored the fluorescence using a SpectraMax i3x (Molecular Devices, CA, USA)
476 for 20 min, with excitation at 485 nm and emission at 520 nm, until the baseline stabilized. Then
477 we added 10 µl of serially diluted peptide solutions and recorded the fluorescence for another 40
478 min. We included triton X-100 (1%) as a positive control.
Method for S. aureus isolates: 306 To determine the minimum concentration of peptide that inhibits the growth of bacteria,
307 termed as the minimal inhibitory concentration (MIC), we used the broth microdilution method
308 described by the Clinical and Laboratory Standards Institute (4). We made serial dilutions of 10×
309 concentrated peptides (10 µl) in duplicate in 96-well plates (Cat no. 3595, Corning, NY, USA).
310 We added 90 µl of logarithmic-phase bacteria at 1 × 10^6 CFU/ml (in TSB medium) to the peptides
311 and then incubated the plates at 37°C for 18 hours. We determined the MIC using OD600
312 measurements taken on a Spectra Max i3x spectrophotometer (Molecular Devices, CA, USA).

Consider H-GLFKVIKKLLKVI-NH2 [CIT-8], for which the “rT (HPLC retention time)” value in data set [1] came to 22.465 min. Moreover, the “Time to complete eradication of MRSA persister cells” value in data set [2] was not above 30 min. In addition, the “Live/dead staining of established biofilm” value in data set [3] was “high proportion of dead cells”. Also, the “Time to eradication of exponential and VRSA persister cells” value in data set [4] was not above 120 min. Also, the “Membrane depolarization, DIBAC4(3) fluorescence” value in the data set on S. aureus MW2 membrane is “rapid increase in DIBAC4(3) fluorescence”. The “Histopathology of treated skin” value in data set [5] is “more intact epidermis, reduced numbers of PMN and MN (less inflammation), and no bacterial biofilm patches”.

On to `CN[C@H](CC(C)C)C(=O)N[C@H]1C(=O)N[C@@H](CC(N)=O)C(=O)N[C@H]2C(=O)N[C@H]3C(=O)N[C@H](C(=O)N[C@H](C(=O)O)c4cc(O)cc(O)c4-c4cc3ccc4O)[C@H](O)c3ccc(c(Cl)c3)Oc3cc2cc(c3O[C@@H]2O[C@H](CO)[C@@H](O)[C@H](O)[C@H]2O[C@H]2C[C@](C)(N)[C@H](O)[C@H](C)O2)Oc2ccc(cc2Cl)[C@H]1O` [Vancomycin, reference compound], for which the MIC amounted to 1 µg/mL (≈ 0.69 µM) against S. aureus isolates (MRSA, S. aureus JE2 (MRSA)); 0.5 µg/mL (≈ 0.345 µM) in the data set on S. aureus isolates (S. aureus BF1 (clinical isolate)); 2 µg/mL (≈ 1.38 µM) against S. aureus isolates (S. aureus BF2 (clinical isolate)); 1 µg/mL (≈ 0.69 µM) against S. aureus isolates (S. aureus BF3 (clinical isolate)); 2 µg/mL (≈ 1.38 µM) in the data set on S. aureus isolates (S. aureus BF4 (clinical isolate)); 1 µg/mL (≈ 0.69 µM) in the data set with S. aureus isolates (S. aureus BF5 (clinical isolate)). Besides, the MIC in the data set with S. aureus isolates (S. aureus BF6 (clinical isolate)) is 1 µg/mL (≈ 0.69 µM); in the data set on S. aureus isolates (S. aureus BF7 (clinical isolate)), 1 µg/mL (≈ 0.69 µM); in the data set with S. aureus isolates (S. aureus BF8 (clinical isolate)), 2 µg/mL (≈ 1.38 µM); in the data set on S. aureus isolates (S. aureus BF9 (clinical isolate)), 0.5 µg/mL (≈ 0.345 µM); with S. aureus isolates (S. aureus BF10 (clinical isolate)), 2 µg/mL (≈ 1.38 µM); against S. aureus isolates (S. aureus BF11 (clinical isolate)), 2 µg/mL (≈ 1.38 µM). For the same compound, the MIC with S. aureus isolates (VISA, S. aureus AR0215 (VISA)) was 2 µg/mL (≈ 1.38 µM); against S. aureus isolates (VISA, S. aureus AR0216 (VISA)), 4 µg/mL (≈ 2.76 µM); in the data set on S. aureus isolates (VISA, S. aureus AR0217 (VISA)) it was 2 µg/mL (≈ 1.38 µM); with S. aureus isolates (VISA, S. aureus AR0219 (VISA)), more than 4 µg/mL; in the data set on S. aureus isolates (VISA, S. aureus AR0225 (VISA)) it was 2 µg/mL (≈ 1.38 µM); against S. aureus isolates (VRSA, S. aureus VRS1 (VRSA)), more than 4 µg/mL.
